Measured values published in patent US20060009493A1, “Indolinone hydrazides as c-Met inhibitors” (Sugen, Inc., priority 2003, published 2006).

biological target: T1, GST fusion protein containing the Met kinase domain (Homo sapiens, UniProt P08581); assay: MET Transphosphorylation Assay (ELISA, poly(Glu,Tyr) 4:1 substrate); assay type: biochemical; details: met transphosphorylation of poly(glutamic acid:tyrosine 4:1) substrate; two values in a cell separated by '/'
T1 construct: Purified GST fusion protein containing the Met kinase domain, Sugen, Inc
T1 sequence (P08581 1078-1345 limits assumed): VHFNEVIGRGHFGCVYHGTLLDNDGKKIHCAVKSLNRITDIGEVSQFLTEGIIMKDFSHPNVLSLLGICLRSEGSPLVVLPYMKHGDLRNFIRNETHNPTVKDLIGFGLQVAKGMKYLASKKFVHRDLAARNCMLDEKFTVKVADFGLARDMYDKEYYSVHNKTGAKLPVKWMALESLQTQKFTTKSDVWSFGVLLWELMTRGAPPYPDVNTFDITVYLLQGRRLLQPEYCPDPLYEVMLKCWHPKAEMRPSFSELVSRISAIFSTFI
How it was run: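 Poly(Glu-Tyr)-coated wells received the GST-Met kinase domain (10 ng/well) with compound in DMSO for 15 minutes. The reaction was started with ATP/MnCl2 in HEPES pH 7.5 buffer with vanadate, run 5 minutes, and stopped with EDTA. Phosphotyrosine was detected by anti-pTyr antibody, HRP secondary and ABTS/H2O2.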

SMILES | IC50 [nM]
Cc1ccc(C)c2c1NC(=O)/C2=N\NC(=O)CCc1ccc(O)cc1 [II-81, 3-(4-Hydroxy-phenyl)-propionic acid [(3Z)-4,7-dimethyl-2-oxo-1,2-dihydro-indol-3-ylidene]-hydrazide] | 59
O=C(CCc1ccc(O)cc1)N/N=C1\C(=O)Nc2cccc(Cl)c21 [II-83, 3-(4-Hydroxy-phenyl)-propionic acid [(3Z)-4-chloro-2-oxo-1,2-dihydro-indol-3-ylidene]-hydrazide] | 81
O=C(Cc1cc(=O)[nH]cn1)N/N=C1\C(=O)Nc2ccccc21 [II-88, (6-Oxo-1,6-dihydro-pyrimidin-4-yl)-acetic acid [(3Z)-2-oxo-1,2-dihydro-indol-3-ylidene]-hydrazide] | 5990
O=C(Cc1cnc(=O)[nH]c1)N/N=C1\C(=O)Nc2ccccc21 [II-89, (2-Oxo-1,2-dihydro-pyrimidin-5-yl)-acetic acid [(3Z)-2-oxo-1,2-dihydro-indol-3-ylidene]-hydrazide] | 12600
CC(C)(C(=O)N/N=C1\C(=O)Nc2ccc(C(=O)O)c(Cl)c21)c1ccc(Cl)cc1 [II-92, (3Z)-4-Chloro-3-{[2-(4-chloro-phenyl)-2-methyl-propionyl]-hydrazono}-2-oxo-2,3-dihydro-1H-indole-5-carboxylic acid] | > 20000
COc1ccc2c(c1Cl)/C(=N/NC(=O)Cc1ccc(O)cc1)C(=O)N2 [II-94, (4-Hydroxy-phenyl)-acetic acid [(3Z)-4-chloro-5-methoxy-2-oxo-1,2-dihydro-indol-3-ylidene]-hydrazide] | 21
COc1cc(Cl)c2c(c1Cl)/C(=N/NC(=O)Cc1ccc(O)cc1)C(=O)N2 [II-95, (4-Hydroxy-phenyl)-acetic acid [(3Z)-4,7-dichloro-5-methoxy-2-oxo-1,2-dihydro-indol-3-ylidene]-hydrazide] | 32
COc1c(O)c2c(c(Cl)c1Cl)NC(=O)/C2=N\NC(=O)Cc1ccc(O)cc1 [II-97, (4-Hydroxy-phenyl)-acetic acid [(3Z)-6,7-dichloro-4-hydroxy-5-methoxy-2-oxo-1,2-dihydro-indol-3-ylidene]-hydrazide] | 320
COc1ccc2c(c1)/C(=N/NC(=O)Cc1ccc(O)cc1)C(=O)N2 [II-98, (4-Hydroxy-phenyl)-acetic acid [(3Z)-5-methoxy-2-oxo-1,2-dihydro-indol-3-ylidene]-hydrazide] | 89
COc1ccc2c(c1Cl)/C(=N/NC(=O)C(C)c1ccc(O)cc1)C(=O)N2 (stereo not shown) [II-99, 2-(4-Hydroxy-phenyl)-propionic acid [(3Z)-4-chloro-5-methoxy-2-oxo-1,2-dihydro-indol-3-ylidene)-hydrazide] | 45
O=C(Cc1ccc(O)c(Br)c1)N/N=C1\C(=O)Nc2ccccc21 [II-101, (3-Bromo-4-hydroxy-phenyl)-acetic acid [(3Z)-2-oxo-1,2-dihydro-indol-3-ylidene]-hydrazide] | 54
O=C(Cc1ccc(O)c(Br)c1)N/N=C1\C(=O)Nc2c(Cl)ccc(Cl)c21 [II-102, (3-Bromo-4-hydroxy-phenyl)-acetic acid [(3Z)-4,7-dichloro-2-oxo-1,2-dihydro-indol-3-ylidene]-hydrazide] | 190
N#Cc1cc(CC(=O)N/N=C2\C(=O)Nc3ccccc32)ccc1O [II-108, (3-Cyano-4-hydroxy-phenyl)-acetic acid [(3Z)-2-oxo-1,2-dihydro-indol-3-ylidene)-hydrazide] | 11900
N#Cc1cc(CC(=O)N/N=C2\C(=O)Nc3c(Cl)ccc(Cl)c32)ccc1O [II-109, (3-Cyano-4-hydroxy-phenyl)-acetic acid [(3Z)4,7-dichloro-2-oxo-1,2-dihydro-indol-3-ylidene)-hydrazide] | 1620
COc1ccc(CC(=O)N/N=C2\C(=O)Nc3ccc(C(=O)O)c(Cl)c32)cc1C#N [II-110, (3Z)-4-Chloro-3-{[2-(3-cyano-4-methoxy-phenyl)-acetyl]-hydrazono}-2-oxo-2,3-dihydro-1H-indole-5-carboxylic acid] | > 20000
COc1cc(Cl)c2c(c1Cl)/C(=N/NC(=O)C(C)c1ccc(O)cc1)C(=O)N2 (stereo not shown) [II-113, 2-(4-Hydroxy-phenyl)-propionic acid [(3Z)4,7-dichloro-5-methoxy-2-oxo-1,2-dihydro-indol-3-ylidene)-hydrazide] | 47
Cc1ccc(Cl)c2c1NC(=O)/C2=N\NC(=O)C(C)c1ccc(F)cc1 (stereo not shown) [II-114, 2-(4-Fluoro-phenyl)-propionic acid [(3Z)4-chloro-7-methyl-2-oxo-1,2-dihydro-indol-3-ylidene]-hydrazide] | 200

Now from value to compound:

IC50 [nM] | SMILES
110 | Nc1cccc(CC(=O)N/N=C2\C(=O)Nc3c(Cl)ccc(Cl)c32)c1 [II-78, (3-Amino-phenyl)-acetic acid [(3Z)-4,7-dichloro-2-oxo-1,2-dihydro-indol-3-ylidene]-hydrazide]
150 | CCC(C(=O)N/N=C1\C(=O)Nc2c(Cl)ccc(Cl)c21)c1ccc(OC)cc1 (stereo not shown) [II-79, 2-(4-Methoxy-phenyl)-butyric acid [(3Z)-4,7-dichloro-2-oxo-1,2-dihydro-indol-3-ylidene)-hydrazide]
> 20000 | O=C(Cc1cc(=O)[nH]c(=O)[nH]1)N/N=C1\C(=O)Nc2ccccc21 [II-80, (2,6-Dioxo-1,2,3,6-tetrahydro-pyrimidin-4-yl)-acetic acid [(3Z)-2-oxo-1,2-dihydro-indol-3-ylidene)-hydrazide]
> 20000 | O=C(Cc1cc(=O)[nH]c(=O)[nH]1)N/N=C1\C(=O)Nc2c(Cl)ccc(Cl)c21 [II-82, (2,6-Dioxo-1,2,3,6-tetrahydro-pyrimidin-4-yl)-acetic acid [(3Z)-4,7-dichloro-2-oxo-1,2-dihydro-indol-3-ylidene]-hydrazide]
> 20000 | O=C(CCc1ccccc1)N/N=C1\C(=O)Nc2c(Cl)ccc(Cl)c21 [II-84, 3-Phenyl-propionic acid [(3Z)-4,7-dichloro-2-oxo-1,2-dihydro-indol-3-ylidene]-hydrazide]
91 | Cc1ccc(C)c2c1NC(=O)/C2=N\NC(=O)Cc1ccccc1 [II-85, Phenyl-acetic acid [(3Z)-4,7-dimethyl-2-oxo-1,2-dihydro-indol-3-ylidene]-hydrazide]
2000 | COc1ccc(CCC(=O)N/N=C2\C(=O)Nc3c(Cl)ccc(Cl)c32)cc1 [II-86, 3-(4-Methoxy-phenyl)-propionic acid [(3Z)-4,7-dichloro-2-oxo-1,2-dihydro-indol-3-ylidene]-hydrazide]
630 | O=C(Cc1cc(O)[nH]n1)N/N=C1\C(=O)Nc2c(Cl)ccc(Cl)c21 [II-87, (5-Hydroxy-1H-pyrazol-3-yl)-acetic acid [(3Z)-4,7-dichloro-2-oxo-1,2-dihydro-indol-3-ylidene]-hydrazide]
> 20000 | O=C(Cc1c[nH]c(=O)[nH]c1=O)N/N=C1\C(=O)Nc2ccccc21 [II-90, (2,4-Dioxo-1,2,3,4-tetrahydro-pyrimidin-5-yl)-acetic acid [(3Z)-2-oxo-1,2-dihydro-indol-3-ylidene]-hydrazide]
> 20000 | CC(C)(C(=O)N/N=C1\C(=O)Nc2c(Cl)ccc(Cl)c21)c1ccc(Cl)cc1 [II-91, 2-(4-Chloro-phenyl)-2-methyl-propionic acid [(3Z)-4,7-dichloro-2-oxo-1,2-dihydro-indol-3-ylidene]-hydrazide]
> 20000 | Cc1ccc(C)c2c1NC(=O)/C2=N\NC(=O)CCc1ccc(N)cc1 [II-93, 3-(4-Amino-phenyl)-propionic acid [(3Z)-4,7-dimethyl-2-oxo-1,2-dihydro-indol-3-ylidene]-hydrazide]
3080 | O=C(Cc1cnc(=O)[nH]c1)N/N=C1\C(=O)Nc2c(Cl)ccc(Cl)c21 [II-96, (2-Oxo-1,2-dihydro-pyrimidin-5-yl)-acetic acid [(3Z)-4,7-dichloro-2-oxo-1,2-dihydro-indol-3-ylidene]-hydrazide]
> 20000 | COc1cc(CC(=O)N/N=C2\C(=O)Nc3c(Cl)ccc(Cl)c32)cc(OC)c1O [II-100, (4-Hydroxy-3,5-dimethoxy-phenyl)-acetic acid [(3Z)-4,7-dichloro-2-oxo-1,2-dihydro-indol-3-ylidene)-hydrazide]
180 | CC(C(=O)N/N=C1\C(=O)Nc2ccccc21)c1ccc(O)c(Br)c1 (stereo not shown) [II-103, 2-(3-Bromo-4-hydroxy-phenyl)-propionic acid [(3Z)-2-oxo-1,2-dihydro-indol-3-ylidene]-hydrazide]
790 | CC(C(=O)N/N=C1\C(=O)Nc2c(Cl)ccc(Cl)c21)c1ccc(O)c(Br)c1 (stereo not shown) [II-104, 2-(3-Bromo-4-hydroxy-phenyl)-propionic acid [(3Z)-4,7-dichloro-2-oxo-1,2-dihydro-indol-3-ylidene]-hydrazide]
420 | CC(C(=O)N/N=C1\C(=O)Nc2ccc(O)c(Cl)c21)c1ccc(F)cc1 (stereo not shown) [II-105, 2-(4-Fluoro-phenyl)-propionic acid [(3Z)-4-chloro-5-hydroxy-2-oxo-1,2-dihydro-indol-3-ylidene)-hydrazide]
> 20000 | COc1ccc(CC(=O)N/N=C2\C(=O)Nc3c(Cl)ccc(Cl)c32)cc1C#N [II-106, (3-Cyano-4-methoxy-phenyl)-acetic acid [(3Z)-4,7-dichloro-2-oxo-1,2-dihydro-indol-3-ylidene]-hydrazide]
> 20000 | COc1ccc(CC(=O)N/N=C2\C(=O)Nc3c(C)ccc(C)c32)cc1C#N [II-107, (3-Cyano-4-methoxy-phenyl)-acetic acid [(3Z)-4,7-dimethyl-2-oxo-1,2-dihydro-indol-3-ylidene]-hydrazide]
3340 | N#Cc1cc(CC(=O)N/N=C2\C(=O)Nc3ccc(C(=O)O)c(Cl)c32)ccc1O [II-111, (3Z)-4-Chloro-3-{[2-(3-cyano-4-hydroxy-phenyl)-acetyl]-hydrazono}-2-oxo-2,3-dihydro-1H-indole-5-carboxylic acid]
2500 | Cc1ccc(C)c2c1NC(=O)/C2=N\NC(=O)Cc1ccc(O)c(C#N)c1 [II-112, (3-Cyano-4-hydroxy-phenyl)-acetic acid [(3Z)-4,7-dimethyl-2-oxo-1,2-dihydro-indol-3-ylidene]-hydrazide]
